The source of these data is patent US11440923B2, “Substituted macrocyclic indole derivatives” (Bayer Aktiengesellschaft, priority 2017, dated 2022).

Assay [1] addresses MCL1 protein / biotinylated BIM BH3 peptide in RKO cells (Homo sapiens (Human), UniProt Q07820). In words: PIxEL: protein-protein interaction in permeabilized cells by ELISA (Assay 5). The class given is cell-based. As to conditions: PIxEL IC50 (median). The method, then: PIxEL: Protein-Protein Interaction in Permeabilized Cells by ELISA
Most MCL1 protein molecules are localized at the mitochondria outer membrane and sequester pro-apoptotic proteins through binding of their BCL2 homology domain 3 (BH3 domain). MEB buffer (150 mM mannitol, 10 mM HEPES pH 7.5, 50 mM KCl, 20 μM EDTA, 20 μM EGTA, 5 mM potassium succinate, 0.1% protease-free BSA (SIGMA) with low dose digitonin (0.002%) permeabilizes plasma membrane while leaves live mitochondria, where MCL1 maintains its native localization and conformation. Unlike biophysical assays (e.g. TR-FRET) that use truncated recombinant MCL1 protein, this assay uses full length endogenous MCL1 protein at mitochondria outer membrane. It measures the interaction between MCL1 protein and biotinylated BIM BH3 peptide. Compounds can compete with BIM BH3 peptide to bind to MCL1 protein.
On day 1, RKO colon cancer cell line cells were plated at 0.8 million cells/ml, 100 μl/well in 96-well flat bottom TC plates (Corning). MCL1 antibody (Santa Cruz sc-12756) were diluted at 200 fold (final concentration 1 μg/ml) in carbonate buffer (Thermo Fisher Scientific, pH 9.6), and 50 μl of diluted antibody was added to each well of high bind ELISA plates ([…]). Each plate was tapped to make sure liquid covering entire bottom of wells and incubate at 37° C. overnight.
On the second day, MCL1 antibody was washed from ELISA plate. 250 μl Odyssey® Blocking Buffer (PBS) (Li-Cor) was added to each well, incubated at room temperature for at least 1 hour, then washed once with 250 μl 1×PBST. Plates with RKO cells were gently washed once with 100 μl/well PBS, once with 100 μl/well MEB buffer without digitonin, then 100 μl of MEB buffer with 0.002% digitonin was gently added to each well. Compounds were added with HP Tecan compound dispenser in 3-fold dilution series, highest dose 30 μM, 10-dose per compound in quadruplicates. Biotin-BIM peptide (synthesized by 21st Century) was added with HP Tecan compound dispenser at 0.2 μM immediately after the addition of compounds. Plates were rocked for 1 hour at room temperature. Then MEB buffer was aspirated and 50 μl of CHAPS buffer (50 mM Tris-Cl, pH 7.4, 150 mM NaCl, 1% CHAPS, 1 mM EDTA, 1 mM EGTA, cOmplete protease inhibitors (Roche), PhosSTOP (Roche)) was added to each well. Plates were rocked for 1 hour at 4° C., then 45 μl cell lysate from each well were transferred to ELISA plates coated with MCL1 antibody. Plates were incubated overnight in the cold room with rocking.
On the third day, ELISA plates were washed once with 250 μl 1×PBST. Streptavidin-poly-HRP (Thermo Fisher Scientific) was diluted to 20 ng/ml in Odyssey blocking buffer plus 0.05% Triton-100, and 100 μl was added to each well of the ELISA plate. Plates were incubated at room temperature for 1 hour with rocking, then washed with 100 μl 1×PBST for 3 times. Each SuperSignal ELISA Femto Maximum Sensitivity substrate was added to a 50-ml tube and mixed, then 100 μl of mixed substrate was added to each well. Plates were shaken for 1 minute then luminescence was measured by Envision plate reader […]. Signal of each well were normalized by no-compound control and no-cell control. IC50 was calculated using Graphic Pad PRISM software.

For assay [2], the system named is AMO-1 cells. Put plainly: Antiproliferation assay AMO-1 (Assay 7). It is filed as cell-based. A digest of the protocol:
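Cells are plated alongside a time-zero reference plate and held overnight at 37 °C. Treated plates are incubated 72 h, then ATP-based luminescence (CellTiter-Glo) is read. IC50 uses day 0 as baseline and DMSO as untreated control.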

[3] abbreviates: Homo sapiens, AMO1, 72 h, 72 h, CellTiter-Glo, read-out: Antiproli AMO-1 IC50 median.
Setting [4] is: 72 h, CellTiter-Glo, read-out: Antiproli AMO-1 IC50 median.
[5] abbreviates: read-out: Antiproli AMO-1 IC50 median, 72 h, CellTiter-Glo.
Setting [6] is: Homo sapiens, AMO1, 72 h, read-out: Antiproli AMO-1 IC50 median, 72 h, CellTiter-Glo.

Counter-ions that a name gives are not always drawn. Like-named read-outs stand apart in the source and are kept apart here.

MCL1 protein / biotinylated BIM BH3 peptide in RKO cells, sequence (Q07820 whole entry, the tested form may be a part): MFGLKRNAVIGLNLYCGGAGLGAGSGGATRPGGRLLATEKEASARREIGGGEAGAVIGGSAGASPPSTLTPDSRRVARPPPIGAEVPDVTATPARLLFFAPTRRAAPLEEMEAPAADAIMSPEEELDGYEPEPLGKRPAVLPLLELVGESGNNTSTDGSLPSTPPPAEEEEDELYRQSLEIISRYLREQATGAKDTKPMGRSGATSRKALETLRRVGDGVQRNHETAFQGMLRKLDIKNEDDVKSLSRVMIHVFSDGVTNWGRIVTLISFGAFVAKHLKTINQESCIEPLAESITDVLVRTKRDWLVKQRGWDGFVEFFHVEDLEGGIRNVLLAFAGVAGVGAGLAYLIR

Turning to `Cc1c2c(nn1C)C(C1CC1)OCCCCn1c(C(=O)O)c(CCCOc3cccc4ccccc34)c3ccc(Cl)c-2c31` (racemic) [Example 28, (rac)-4-Chloro-15-cyclopropyl-2,3-dimethyl-7-{3-[(naphthalen-1-yl)oxy]propyl}-2,10,11,12,13,15-hexahydropyrazolo[4′,3′:9,10][1,6]oxazacycloundecino[8,7,6-hi]indole-8-carboxylic Acid], the concentration for half-maximal inhibition (IC50) was 2.33 µM in assay [1] and 10900 nM in assay [2] (setting [3]).
In the case of `CCc1c2c(nn1C)C(c1ccccc1)OCCCCn1c(C(=O)O)c(CCCOc3cccc4cc(F)ccc34)c3ccc(Cl)c-2c31` (racemic) [Example 59, (rac)-4-chloro-3-ethyl-7-{3-[(6-fluoronaphthalen-1-yl)oxy]propyl}-2-methyl-(15-rac)-phenyl-2,10,11,12,13,15-hexahydropyrazolo[4′,3′:9,10][1,6]oxazacycloundecino[8,7,6-hi]indole-8-carboxylic Acid], the half-maximal inhibitory concentration (IC50) in assay [1] is 0.19 µM; in assay [2] (setting [3]), 753 nM.
As to `CCc1c2c(nn1C)C1CCCCN1CCCCn1c(C(=O)O)c(CCCOc3cccc4ccccc34)c3ccc(Cl)c-2c31` (racemic) [Example 102, (rac)-18-chloro-1-ethyl-2-methyl-15-[3-(1-naphthyloxy)propyl]-2,3b,4,5,6,7,9,10,11,12-decahydropyrazolo[3′,4′:8,9]pyrido[1′,2′:6,7][1,6]diazacycloundecino[10,11,1-hi]indole-14-carboxylic Acid], the half-maximal inhibitory concentration (IC50) in assay [1] turned out to be 0.0599 µM; in assay [2] (setting [3]), 522 nM.
Turning to `CCc1c2c(nn1C)C(CCN1CC(F)(F)C1)OCCCCn1c(C(=O)O)c(CCCOc3cccc4cc(F)ccc34)c3ccc(Cl)c-2c31` (single isomer, unassigned; (+)) [Example 78, (+)-4-chloro-15-[2-(3,3-difluoroazetidin-1-yl)ethyl]-3-ethyl-7-{3-[(6-fluoronaphthalen-1-yl)oxy]propyl}-2-methyl-2,10,11,12,13,15-hexahydropyrazolo[4′,3′:9,10][1,6]oxazacycloundecino[8,7,6-hi]indole-8-carboxylic Acid—N-ethylethanamine Salt], the concentration for half-maximal inhibition (IC50) in assay [1] stood at 0.0434 µM; in assay [2] (setting [4]) it was 11.2 nM.
On to `CCc1c2c(nn1C)C1CCCN1CCCCn1c(C(=O)O)c(CCCOc3cccc4cc(F)ccc34)c3ccc(Cl)c-2c31` (single isomer, unassigned; (+)) [Example 105, (+)-17-chloro-1-ethyl-14-{3-[(6-fluoronaphthalen-1-yl)oxy]propyl}-2-methyl-3b,4,5,6,8,9,10,11-octahydro-2H-pyrazolo[3′,4′:8,9]pyrrolo[1′,2′:6,7][1,6]diazacycloundecino[10,11,1-hi]indole-13-carboxylic Acid], for which the 50% inhibitory concentration (IC50) in assay [1] stood at 0.063 µM; in assay [2] (setting [4]), 203 nM.
Regarding `CCc1c2c(nn1C)C(CCN1CCOCC1)OCCCCn1c(C(=O)O)c(CCCOc3cccc4ccccc34)c3ccc(F)c-2c31` (single isomer, unassigned; enantiomer 1) [Example 11, 3-ethyl-4-fluoro-2-methyl-15-[2-(morpholin-4-yl)ethyl]-7-{3-[(naphthalen-1-yl)oxy]propyl}-2,10,11,12,13,15-hexahydropyrazolo[4′,3′:9,10][1,6]oxazacycloundecino[8,7,6-hi]indole-8-carboxylic Acid—N-ethylethanamine Salt (Enantiomer 1)], the IC50 in assay [1] (uM) was more than 30 µM; in assay [2] (setting [5]) it was 159 nM.
For `Cc1c2c(nn1C)C(CCN1CCOCC1)OCCCCn1c(C(=O)O)c(CCCOc3cccc4ccccc34)c3ccc(Cl)c-2c31` (single isomer, unassigned; enantiomer 1) [Example 14, 4-chloro-2,3-dimethyl-15-[2-(morpholin-4-yl)ethyl]-7-{3-[(naphthalen-1-yl)oxy]propyl}-2,10,11,12,13,15-hexahydropyrazolo[4′,3′:9,10][1,6]oxazacycloundecino[8,7,6-hi]indole-8-carboxylic Acid (Enantiomer 1)], the figures for the IC50 in assay [1] and in assay [2] (setting [4]) were 0.0834 µM and 43.1 nM, respectively.
As to `Cc1c2c(nn1C)C(CCN1CCOCC1)OCCCCn1c(C(=O)O)c(CCCOc3cccc4cc(F)ccc34)c3ccc(Cl)c-2c31` (single isomer, unassigned; enantiomer 1) [Example 17, 4-chloro-7-{3-[(6-fluoronaphthalen-1-yl)oxy]propyl}-2,3-dimethyl-15-[2-(morpholin-4-yl)ethyl]-2,10,11,12,13,15-hexahydropyrazolo[4′,3′:9,10][1,6]oxazacycloundecino[8,7,6-hi]indole-8-carboxylic Acid—N-ethylethanamine (Enantiomer 1)], the half-inhibitory concentration (IC50) turned out to be 0.0357 µM in assay [1] and 28.2 nM in assay [2] (setting [6]).
In the case of `Cc1c2c(nn1C)C(CCN1CCOCC1)OCCCCn1c(C(=O)O)c(CCCOc3cccc4cc(F)ccc34)c3ccc(F)c-2c31` (single isomer, unassigned; enantiomer 1) [Example 20, 4-fluoro-7-{3-[(6-fluoronaphthalen-1-yl)oxy]propyl}-2,3-dimethyl-15-[2-(morpholin-4-yl)ethyl]-2,10,11,12,13,15-hexahydropyrazolo[4′,3′:9,10][1,6]oxazacycloundecino[8,7,6-hi]indole-8-carboxylic Acid—N-ethylethanamine (Enantiomer 1)], the half-inhibitory concentration (IC50) in assay [1] was 0.1 µM; in assay [2] (setting [6]), 94.5 nM.
For `CCC1OCCCCn2c(C(=O)O)c(CCCOc3cccc4ccccc34)c3ccc(Cl)c(c32)-c2c1nn(C)c2C` (single isomer, unassigned; enantiomer 1) [Example 29, (+)-4-chloro-15-ethyl-2,3-dimethyl-7-{3-[(naphthalen-1-yl)oxy]propyl}-2,10,11,12,13,15-hexahydropyrazolo[4′,3′:9,10][1,6]oxazacycloundecino[8,7,6-hi]indole-8-carboxylic Acid—N-ethylethanamine Salt (Enantiomer 1)], the IC50 in assay [1] was 1.06 µM; in assay [2] (setting [5]), 4350 nM.
`Cc1c2c(nn1C)C(CCO)OCCCCn1c(C(=O)O)c(CCCOc3cccc4ccccc34)c3ccc(Cl)c-2c31` (single isomer, unassigned; enantiomer 1) [Example 31, (+)-4-chloro-15-(2-hydroxyethyl)-2,3-dimethyl-7-{3-[(naphthalen-1-yl)oxy]propyl}-2,10,11,12,13,15-hexahydropyrazolo[4′,3′:9,10][1,6]oxazacycloundecino[8,7,6-hi]indole-8-carboxylic Acid (Enantiomer 1)]: the 50% inhibitory concentration (IC50) stood at 0.481 µM in assay [1] and 326 nM in assay [2] (setting [4]).
Consider `CCc1c2c(nn1C)C(C(F)(F)F)OCCCCn1c(C(=O)O)c(CCCOc3cccc4ccccc34)c3ccc(Cl)c-2c31` (single isomer, unassigned; enantiomer 1) [Example 33, (+)-4-chloro-3-ethyl-2-methyl-7-{3-[(naphthalen-1-yl)oxy]propyl}-15-(trifluoromethyl)-2,10,11,12,13,15-hexahydropyrazolo[4′,3′:9,10][1,6]oxazacycloundecino[8,7,6-hi]indole-8-carboxylic Acid—N-ethylethanamine Salt (Enantiomer 1)], for which the IC50 in assay [1] was 1.51 µM; in assay [2] (setting [5]), 6960 nM.
For `Cc1c2c(nn1C)C(C1CC1)OCCCCn1c(C(=O)O)c(CCCOc3cccc4ccccc34)c3ccc(Cl)c-2c31` (single isomer, unassigned; enantiomer 1) [Example 35, (+)-4-chloro-15-cyclopropyl-2,3-dimethyl-7-{3-[(naphthalen-1-yl)oxy]propyl}-2,10,11,12,13,15-hexahydropyrazolo[4′,3′:9,10][1,6]oxazacycloundecino[8,7,6-hi]indole-8-carboxylic Acid N-ethylethanamine Salt (Enantiomer 1)], the half-maximal inhibitory concentration (IC50) was found to be 1.64 µM in assay [1] and 3710 nM in assay [2] (setting [5]).
